Here are results for 32 molecules from patent publication US11912693B2, “Compounds for modulating S1P1 activity and methods of using the same” (TREVENA, INC., priority 2017, dated 2024).

Structures are written as SMILES.

Assay [1] addresses T1, human sphingosine-1-phosphate receptor 1 (S1P1) (Homo sapiens (Human), UniProt P21453). The assay is described as follows: Inhibition of cAMP production (HTRF cAMP HiRange), S1P1 CHO-K1 cells. Type of assay: cell-based. The following applies: for hS1P1 cAMP pEC50 / EC50: inhibition of cAMP production, S1P1 CHO-K1 cells; for Emax: CHO-K1, efficacy (SPAN) normalized to fingolimod, read-out: hS1P1 cAMP SPAN; for EC50: read-out: hS1P1 cAMP pEC50 (converted). The essentials: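 CHO-K1 cells stably co-expressing human S1P1 (C-terminal Prolink tag) and EA-β-arrestin2 were grown in AssayComplete Media 6 at 37° C. and 5% CO2, plated, and incubated overnight. Agonist-driven inhibition of intracellular cAMP was read by TR-FRET with the HTRF cAMP HiRange kit on a PheraStar reader. Potency is pEC50, and efficacy (SPAN) is normalized to fingolimod.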
A general note: Changes in cAMP serve as a functional read-out for many G protein-coupled receptors.
Target sequence in this assay (P21453 whole entry, looked up): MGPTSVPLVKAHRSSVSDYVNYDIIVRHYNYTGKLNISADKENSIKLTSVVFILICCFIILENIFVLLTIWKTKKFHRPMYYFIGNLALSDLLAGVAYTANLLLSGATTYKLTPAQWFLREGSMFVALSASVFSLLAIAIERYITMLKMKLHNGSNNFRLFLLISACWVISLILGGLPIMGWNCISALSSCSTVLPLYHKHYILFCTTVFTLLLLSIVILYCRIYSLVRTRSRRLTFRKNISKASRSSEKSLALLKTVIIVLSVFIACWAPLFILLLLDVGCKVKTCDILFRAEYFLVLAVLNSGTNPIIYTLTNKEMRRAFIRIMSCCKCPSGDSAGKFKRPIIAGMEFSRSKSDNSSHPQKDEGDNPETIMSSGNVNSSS

For assay [2], the target named is T1, human sphingosine-1-phosphate receptor 1 (S1P1). The assay is described as follows: β-Arrestin2 recruitment assay (PathHunter), S1P1 CHO-K1 cells. Type of assay: cell-based. The following applies: for hS1P1 B-arrestin2 pEC50 / EC50: β-arrestin2 recruitment, S1P1 CHO-K1 cells; for Emax: CHO-K1, efficacy (SPAN) normalized to fingolimod, read-out: hS1P1 B-arrestin2 SPAN; for EC50: read-out: hS1P1 B-arrestin2 pEC50 (converted). Summed up: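 Enzyme-fragment complementation read-out: agonist-driven β-arrestin2 binding to ProLink-tagged human S1P1 in stable CHO-K1 cells restores β-galactosidase, measured 1 h at room temperature after a 60 min 37° C. compound incubation. Potency as pEC50, efficacy relative to fingolimod (SPAN).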
Target sequence in this assay (P21453 whole entry, looked up): as above
Target sequence in this assay (P32121 whole entry partner, looked up): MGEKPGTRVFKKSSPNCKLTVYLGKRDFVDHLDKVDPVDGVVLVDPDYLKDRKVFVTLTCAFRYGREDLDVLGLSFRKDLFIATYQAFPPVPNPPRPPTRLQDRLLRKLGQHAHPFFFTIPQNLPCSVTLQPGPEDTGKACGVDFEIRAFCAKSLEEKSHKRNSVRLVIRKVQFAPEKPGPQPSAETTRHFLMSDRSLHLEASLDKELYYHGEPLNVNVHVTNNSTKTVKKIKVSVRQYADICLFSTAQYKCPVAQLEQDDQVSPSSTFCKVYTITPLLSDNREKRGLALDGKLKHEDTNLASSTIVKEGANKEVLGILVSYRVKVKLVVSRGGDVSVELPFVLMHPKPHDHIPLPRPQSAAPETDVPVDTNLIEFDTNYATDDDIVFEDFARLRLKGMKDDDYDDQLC
(In general: Activated receptors often draw arrestin, which recruitment assays turn into a signal.)

On to `COc1ccccc1-c1noc(-c2ccc3c(cnn3C(C)C)c2)n1` [Compound 370, 5-(1-isopropyl-1H-indazol-5-yl)-3-(2-methoxyphenyl)-1,2,4-oxadiazole], for which the “hS1P1 cAMP pEC50” value in assay [1] is listed as more than 6.5. In assay [2], the “hS1P1 B-arrestin2 pEC50” value is on record as more than 5.

On to `COc1ccccc1-c1noc(-c2ccc3[nH]ncc3c2)n1` [Compound 371, 5-(1H-indazol-5-yl)-3-(2-methoxyphenyl)-1,2,4-oxadiazole], for which the “hS1P1 cAMP pEC50” value in assay [1] was less than 6.5. The “hS1P1 B-arrestin2 pEC50” value in assay [2] was less than 5.

For the molecule `COc1ccccc1-c1noc(-c2ccc3c(ccn3C(C)C)c2)n1` [Compound 372, 5-(1-isopropyl-1H-indol-5-yl)-3-(2-methoxyphenyl)-1,2,4-oxadiazole], in assay [1], the “hS1P1 cAMP pEC50” value is on record as more than 6.5. Further, the “hS1P1 B-arrestin2 pEC50” value in assay [2] is on record as more than 5.

Take `COc1ccccc1-c1noc(-c2ccc3c(c2)ncn3C(C)C)n1` [Compound 373, 5-(1-isopropyl-1H-benzo[d]imidazol-5-yl)-3-(2-methoxyphenyl)-1,2,4-oxadiazole]: in assay [1], the “hS1P1 cAMP pEC50” value is listed as less than 6.5. The “hS1P1 B-arrestin2 pEC50” value in assay [2] was less than 5.

On to `CC(C)n1ccc2cc(-c3nc(-c4ccccc4F)ns3)ccc21` [Compound 374, 5-[3-(2-fluorophenyl)-1,2,4-thiadiazol-5-yl]-1-(propan-2-yl)-1H-indole], for which, in assay [1], the “hS1P1 cAMP pEC50” value is less than 6.5. In assay [2], the “hS1P1 B-arrestin2 pEC50” value is less than 5.

`COc1ccccc1-c1nc(-c2ccc3c(ccn3C(C)C)c2)ns1` [Compound 375, 5-[5-(2-methoxyphenyl)-1,2,4-thiadiazol-3-yl]-1-(propan-2-yl)-1H-indole]: the “hS1P1 cAMP pEC50” value in assay [1] is on record as more than 6.5. For the same molecule, the “hS1P1 B-arrestin2 pEC50” value in assay [2] is more than 5.

On to `CN1C(=O)Cc2cc(-c3nc(-c4cccnc4)no3)ccc21` [Compound 377, 1-methyl-5-[3-(pyridin-3-yl)-1,2,4-oxadiazol-5-yl]-2,3-dihydro-1H-indol-2-one], for which the “hS1P1 cAMP pEC50” value in assay [1] is recorded as less than 6.5. In addition, the “hS1P1 B-arrestin2 pEC50” value in assay [2] is recorded as less than 5.

Regarding `COC(=O)C12C3C4C1C1C2C3C41c1nc(-c2ccc3c(c2)nnn3C(C)C)no1` (centres unmarked) [Compound 378], in assay [1], the Emax is less than 75% and the EC50 was more than 0.316 µM. In assay [2], the Emax was less than 75% and the EC50 was more than 10 µM.

As for `CC(C)n1nnc2cc(-c3noc(C45C6C7C4C4C5C6C74C(=O)O)n3)ccc21` (centres unmarked) [Compound 379], the Emax in assay [1] and in assay [2] was less than 75% each time. For the same molecule, the EC50 is more than 0.316 µM in assay [1] and more than 10 µM in assay [2].

Take `CC(C)n1ccc2cc(-c3nsc(-c4ccccc4F)n3)ccc21` [Compound 380, 5-[5-(2-fluorophenyl)-1,2,4-thiadiazol-3-yl]-1-(propan-2-yl)-1H-indole]: the “hS1P1 cAMP pEC50” value in assay [1] is on record as less than 6.5. Further, the “hS1P1 B-arrestin2 pEC50” value in assay [2] was less than 5.

As for `Cc1ccccc1-c1nsc(-c2ccc3c(ccn3C(C)C)c2)n1` [Compound 381, 5-[3-(2-methylphenyl)-1,2,4-thiadiazol-5-yl]-1-(propan-2-yl)-1H-indole], in assay [1], the “hS1P1 cAMP pEC50” value is given as less than 6.5. Besides, the “hS1P1 B-arrestin2 pEC50” value in assay [2] is reported as more than 5.

As for `Cc1ccccc1-c1noc(-c2cnc3c(c2)nnn3C(C)C)n1` [Compound 382, 3-(2-methylphenyl)-5-[3-(propan-2-yl)-3H-[1,2,3]triazolo[4,5-b]pyridin-6-yl]-1,2,4-oxadiazole], the “hS1P1 cAMP pEC50” value in assay [1] was more than 6.5. Besides, the “hS1P1 B-arrestin2 pEC50” value in assay [2] is more than 5.

With `COc1ccccc1-c1noc(-c2cnc3c(c2)nnn3C(C)C)n1` [Compound 383, 3-(2-methoxyphenyl)-5-[3-(propan-2-yl)-3H-[1,2,3]triazolo[4,5-b]pyridin-6-yl]-1,2,4-oxadiazole], the “hS1P1 cAMP pEC50” value in assay [1] was more than 6.5. The “hS1P1 B-arrestin2 pEC50” value in assay [2] is more than 5.

Turning to `COc1cccc(-c2coc(-c3ccc4c(c3)nnn4C(C)C)n2)c1` [Compound 385, 5-[4-(3-methoxyphenyl)-1,3-oxazol-2-yl]-1-(propan-2-yl)-1H-1,2,3-benzotriazole], in assay [1], the Emax is less than 75% and the “hS1P1 cAMP pEC50” value was less than 6.5. In assay [2], the Emax is more than 75% and the “hS1P1 B-arrestin2 pEC50” value is listed as less than 5.

On to `O=C1CCc2cc(-c3nc(-c4cccnc4)no3)ccc2N1` [Compound 386, 6-[3-(pyridin-3-yl)-1,2,4-oxadiazol-5-yl]-1,2,3,4-tetrahydroquinolin-2-one], for which, in assay [1], the “hS1P1 cAMP pEC50” value is recorded as less than 6.5. For the same molecule, the “hS1P1 B-arrestin2 pEC50” value in assay [2] is less than 5.

Take `CC(C)n1ccc2cc(-c3noc(-c4ccccc4F)n3)ccc21` [Compound 387, 5-(2-fluorophenyl)-3-(1-isopropyl-1H-indol-5-yl)-1,2,4-oxadiazole]: in assay [1], the “hS1P1 cAMP pEC50” value is recorded as less than 6.5. Further, the “hS1P1 B-arrestin2 pEC50” value in assay [2] was more than 5.

As to `CC(C)n1ccc2cc(-c3noc(-c4ccccc4Br)n3)ccc21` [Compound 388, 5-(2-bromophenyl)-3-(1-isopropyl-1H-indol-5-yl)-1,2,4-oxadiazole], the “hS1P1 cAMP pEC50” value in assay [1] was more than 6.5. Besides, the “hS1P1 B-arrestin2 pEC50” value in assay [2] is reported as more than 5.

`Cc1ccccc1-c1nc(-c2ccc3c(ccn3C(C)C)c2)no1` [Compound 389, 3-(1-isopropyl-1H-indol-5-yl)-5-(o-tolyl)-1,2,4-oxadiazole]: in assay [1], the “hS1P1 cAMP pEC50” value is listed as more than 6.5. Also, the “hS1P1 B-arrestin2 pEC50” value in assay [2] was more than 5.

With `CC(C)n1ccc2cc(-c3noc(-c4ccccc4C(F)(F)F)n3)ccc21` [Compound 390, 3-(1-isopropyl-1H-indol-5-yl)-5-(2-(trifluoromethyl)phenyl)-1,2,4-oxadiazole], in assay [1], the “hS1P1 cAMP pEC50” value is recorded as more than 6.5. The “hS1P1 B-arrestin2 pEC50” value in assay [2] is on record as more than 5.

`COc1cccc(-c2nc(-c3ccc4c(ccn4C(C)C)c3)no2)c1` [Compound 392, 3-(1-isopropyl-1H-indol-5-yl)-5-(3-methoxyphenyl)-1,2,4-oxadiazole]: the “hS1P1 cAMP pEC50” value in assay [1] was less than 6.5. Also, the “hS1P1 B-arrestin2 pEC50” value in assay [2] was less than 5.

As for `COc1ccc(-c2nc(-c3ccc4c(ccn4C(C)C)c3)no2)cc1` [Compound 393, 3-(1-isopropyl-1H-indol-5-yl)-5-(4-methoxyphenyl)-1,2,4-oxadiazole], in assay [1], the “hS1P1 cAMP pEC50” value was less than 6.5. The “hS1P1 B-arrestin2 pEC50” value in assay [2] is reported as less than 5.

For `CC(C)n1ccc2cc(-c3noc(-c4cccc(F)c4)n3)ccc21` [Compound 394, 5-(3-fluorophenyl)-3-(1-isopropyl-1H-indol-5-yl)-1,2,4-oxadiazole], the “hS1P1 cAMP pEC50” value in assay [1] was less than 6.5. In assay [2], the “hS1P1 B-arrestin2 pEC50” value is more than 5.

Consider `CC(C)n1ccc2cc(-c3noc(-c4ccncc4)n3)ccc21` [Compound 395, 3-(1-isopropyl-1H-indol-5-yl)-5-(pyridin-4-yl)-1,2,4-oxadiazole], for which, in assay [1], the “hS1P1 cAMP pEC50” value was more than 6.5. Also, the “hS1P1 B-arrestin2 pEC50” value in assay [2] was more than 5.

Turning to `CC(C)n1ccc2cc(-c3noc(-c4cccnc4)n3)ccc21` [Compound 396, 3-(1-isopropyl-1H-indol-5-yl)-5-(pyridin-3-yl)-1,2,4-oxadiazole], in assay [1], the “hS1P1 cAMP pEC50” value is reported as less than 6.5. Besides, the “hS1P1 B-arrestin2 pEC50” value in assay [2] is on record as less than 5.

Consider `CC(C)n1ccc2cc(-c3noc(-c4ccccn4)n3)ccc21` [Compound 397, 3-(1-isopropyl-1H-indol-5-yl)-5-(pyridin-2-yl)-1,2,4-oxadiazole], for which, in assay [1], the “hS1P1 cAMP pEC50” value is less than 6.5. The “hS1P1 B-arrestin2 pEC50” value in assay [2] was less than 5.

In the case of `CC(C)n1ccc2cc(-c3noc(-c4ccncc4F)n3)ccc21` [Compound 399, 5-(3-fluoropyridin-4-yl)-3-(1-isopropyl-1H-indol-5-yl)-1,2,4-oxadiazole], the “hS1P1 cAMP pEC50” value in assay [1] was more than 6.5. Moreover, the “hS1P1 B-arrestin2 pEC50” value in assay [2] is more than 5.

`CC(C)n1ccc2cc(-c3noc(-c4ccc(F)cc4)n3)ccc21` [Compound 400, 5-(4-fluorophenyl)-3-(1-isopropyl-1H-indol-5-yl)-1,2,4-oxadiazole]: the “hS1P1 cAMP pEC50” value in assay [1] was less than 6.5. Further, in assay [2], the “hS1P1 B-arrestin2 pEC50” value is reported as less than 5.

Consider `COc1ccccc1-c1csc(-c2cnc3c(ccn3C(C)C)c2)n1` [Compound 401, 2-(1-isopropyl-1H-pyrrolo[2,3-b]pyridin-5-yl)-4-(2-methoxyphenyl)thiazole], for which the “hS1P1 cAMP pEC50” value in assay [1] was less than 6.5. In assay [2], the “hS1P1 B-arrestin2 pEC50” value is less than 5.

Consider `CC(C)n1ccc2cc(-c3nc(-c4ccccc4F)cs3)cnc21` [Compound 402, 4-(2-fluorophenyl)-2-(1-isopropyl-1H-pyrrolo[2,3-b]pyridin-5-yl)thiazole], for which the “hS1P1 cAMP pEC50” value in assay [1] is listed as more than 6.5. Besides, the “hS1P1 B-arrestin2 pEC50” value in assay [2] is on record as less than 5.

On to `CC(C)n1ccc2cc(-c3nc(-c4ccccc4F)cs3)ccc21` [Compound 403, 4-(2-fluorophenyl)-2-(1-isopropylindol-5-yl)thiazole], for which, in assay [1], the Emax is less than 75% and the “hS1P1 cAMP pEC50” value is recorded as less than 6.5. Moreover, in assay [2], the Emax was less than 75% and the “hS1P1 B-arrestin2 pEC50” value is less than 5.

For the molecule `CC(C)n1ccc2cc(-c3nc(-c4ccccc4C(F)(F)F)cs3)ccc21` [Compound 404, 2-(1-isopropylindol-5-yl)-4-[2-(trifluoromethyl)phenyl]thiazole], in assay [1], the Emax is more than 75% and the “hS1P1 cAMP pEC50” value was less than 6.5. Besides, in assay [2], the Emax is less than 75% and the “hS1P1 B-arrestin2 pEC50” value is less than 5.

In the case of `COc1cccc(-c2csc(-c3ccc4c(ccn4C(C)C)c3)n2)c1` [Compound 405, 2-(1-isopropylindol-5-yl)-4-(3-methoxyphenyl)thiazole], the “hS1P1 cAMP pEC50” value in assay [1] is less than 6.5. Further, the “hS1P1 B-arrestin2 pEC50” value in assay [2] is recorded as less than 5.
